Data taken from the NIST ThermoML archive (doi:10.1021/acs.jced.5b00251).

Assay: refractive index (other wavelength) (dimensionless); xn = mol fraction of the nth substance listed
Details: 101 kPa, Liquid, Standard Abbe refractometry

c1ccc2c(c1)CCCC2 [1,2,3,4-tetrahydronaphthalene] + CCCCCCCCCCCC
refractive index
Details	x1 = 0.1014	x1 = 0.2024	x1 = 0.3032	x1 = 0.4036	x1 = 0.5038	x1 = 0.6036	x1 = 0.7032	x1 = 0.8024	x1 = 0.9014
293.15 K, Wavelength=436.1 nm	1.44127	1.45203	1.46314	1.47515	1.48812	1.50126	1.51481	1.52971	1.54558
293.15 K, Wavelength=513.9 nm	1.43473	1.44489	1.45538	1.46671	1.47843	1.49106	1.50417	1.51804	1.53275
293.15 K, Wavelength=589.3 nm	1.43105	1.44086	1.45101	1.46197	1.47329	1.48552	1.49803	1.51156	1.52591
293.15 K, Wavelength=633.2 nm	1.42949	1.43917	1.44918	1.45999	1.47113	1.48318	1.49553	1.50887	1.52288
293.15 K, Wavelength=657.2 nm	1.42878	1.43896	1.44835	1.45921	1.47078	1.48194	1.4944	1.50801	1.52229
298.15 K, Wavelength=436.1 nm	1.439	1.44978	1.46073	1.47277	1.48561	1.49875	1.51238	1.52724	1.54301
298.15 K, Wavelength=513.9 nm	1.43249	1.44267	1.4533	1.46438	1.47612	1.48874	1.50164	1.51563	1.53046
298.15 K, Wavelength=589.3 nm	1.42884	1.43868	1.44896	1.45965	1.47078	1.48302	1.4955	1.50927	1.52353
298.15 K, Wavelength=633.2 nm	1.42729	1.43699	1.44692	1.45768	1.4689	1.4807	1.4932	1.50652	1.52049
298.15 K, Wavelength=657.2 nm	1.42675	1.43623	1.44627	1.45678	1.46851	1.47967	1.49181	1.50529	1.5199
303.15 K, Wavelength=436.1 nm	1.43671	1.44738	1.45818	1.4705	1.48295	1.49619	1.50983	1.52452	1.54034
303.15 K, Wavelength=513.9 nm	1.43024	1.44033	1.45084	1.46216	1.47359	1.48633	1.49917	1.51321	1.52785
303.15 K, Wavelength=589.3 nm	1.42659	1.43636	1.44635	1.45733	1.46841	1.48085	1.49318	1.50685	1.52095
303.15 K, Wavelength=633.2 nm	1.42505	1.4347	1.44438	1.45549	1.46668	1.47855	1.49077	1.50415	1.51798
303.15 K, Wavelength=657.2 nm	1.42434	1.434	1.44387	1.45441	1.46615	1.47729	1.48949	1.50284	1.51741
308.15 K, Wavelength=436.1 nm	1.43455	1.44495	1.45589	1.46783	1.4805	1.49371	1.50749	1.52185	1.538
308.15 K, Wavelength=513.9 nm	1.42811	1.43794	1.44864	1.45985	1.47118	1.48392	1.49684	1.51075	1.52559
308.15 K, Wavelength=589.3 nm	1.4245	1.434	1.44408	1.45488	1.46618	1.47848	1.49085	1.50425	1.51872
308.15 K, Wavelength=633.2 nm	1.42297	1.43234	1.44222	1.45318	1.46436	1.4762	1.48855	1.50145	1.51565
308.15 K, Wavelength=657.2 nm	1.42224	1.4316	1.44127	1.45195	1.46385	1.47498	1.48694	1.50013	1.51517
313.15 K, Wavelength=436.1 nm	1.43218	1.44283	1.45339	1.46524	1.47822	1.49111	1.50491	1.51939	1.5354
313.15 K, Wavelength=513.9 nm	1.42576	1.43568	1.44614	1.45759	1.46885	1.48167	1.49443	1.50825	1.52307
313.15 K, Wavelength=589.3 nm	1.42227	1.43177	1.44157	1.45242	1.46372	1.47625	1.48857	1.50166	1.51623
313.15 K, Wavelength=633.2 nm	1.42066	1.43026	1.43979	1.45075	1.46185	1.47398	1.48614	1.49928	1.51325
313.15 K, Wavelength=657.2 nm	1.41998	1.42919	1.439	1.44965	1.46161	1.47245	1.48468	1.49759	1.51275
318.15 K, Wavelength=436.1 nm	1.43001	1.44026	1.45084	1.46269	1.47578	1.48857	1.50241	1.51672	1.5331
318.15 K, Wavelength=513.9 nm	1.42366	1.43333	1.44405	1.45487	1.46645	1.47929	1.49184	1.50571	1.52083
318.15 K, Wavelength=589.3 nm	1.42009	1.42933	1.43955	1.44985	1.46145	1.47389	1.48615	1.49906	1.51403
318.15 K, Wavelength=633.2 nm	1.41859	1.42777	1.43785	1.44826	1.45981	1.47165	1.48389	1.49667	1.51123
318.15 K, Wavelength=657.2 nm	1.41814	1.42702	1.43701	1.44718	1.45934	1.47014	1.48216	1.49507	1.51044
